For series [1], the system named is arthritis. The settings on record: cited from earlier work; for inhibition of inflammation in an arthritis model: in vivo.
For the next series, the system named is TNFα. In words: Whole blood assay: inhibition of LPS-induced TNFα release (TNF ELISA). In kind it is cell-based, human. The settings on record: for effect on TNF production or release (in words) / inhibition of TNF production at the upper range of the dose curve: 25% whole blood diluted in plasmalyte. Here is the method: […]. […] The experiment was conducted at least 2 times in duplicates and the fitted representation above consists of the average of those experiments. The IC50 values were calculated using logistic analysis on Origin Software.
FIG. 4 illustrates a graph showing the inhibition of release of TNF α by terbutaline and salbutamol. This assay evaluated the inhibition of TNF production by salbutamol and terbutaline using the whole blood assay. This method utilized an LPS induction at 10 μg/ml in 25% whole blood diluted in plasmalyte. […] Higher doses were not evaluated because the equivalent mg/kg doses would be too high, therefore, limiting their practical use under therapeutic conditions. IC50 values were not calculated. […] The data and the fit were calculated using Origin Software.
FIG. 5 illustrates a graph showing the inhibition of TNF production by butoxamine, and induction of TNF release by atenolol and metoprolol. […].
This assay measured prazosin alone, and the combination of: prasozin/butoxamine, prasozin/butoxamine/terbutaline, prasozin/butoxamine/salbutamol, and prazosin/salbutamol. […].
We collected whole human blood in a polypropylene tube. Containing a final concentration of 10 units of heparin per ml of blood using gravity flow with 19-gauge needle. To prevent non-specific activation of cells, we used the blood within 30 minutes of draw. The blood was diluted with plasmalyte to 50%, 40%, 30%, 20%, and 10% concentrations. In a matrix based assay set up, each blood dilution was treated with various concentrations of LPS dosages ranging from 60 μg/ml, 10 μg/ml, 6 μg/ml, 1 μg/ml, 0.6 μg/ml, 0.1 μg/ml, and 0.06 μg/ml. The LPS treated blood was incubated at 37 degree in an incubator with continues rotation. Following the incubation, the blood was centrifuged and the plasma was evaluated for TNF quantification using the ELISA assay (BD Biosciences, Los Angeles, Calif.).
We initially tested the ability of LPS to produce TNF from monocytes, by adding various dilutions of LPS (60 μg, 10 μg, 6 μg, 1 μg, 0.6 μg, 0.1 μg, 0.06 μg) per ml of diluted blood (blood dilutions 50%, 40%, 20%, 10%, and 5%). Blood dilutions were made in the clinically relevant buffer “plasmalyte”. LPS treated blood was incubated at 37° C. for 2 hr. Following incubation, we separated the plasma samples by centrifugation. We evaluated the samples using TNF-ELISA. […] Relying on FIG. 1, we conducted a blood dilution curve with 10 μg/ml LPS (FIG. 2). Based on interpretation of FIGS. 1 and 2, we concluded that blood dilution of 20-25% would be ideal at an LPS dose of 10 μg/ml. Based on the FIG. 2 data, we found LPS causes a near linear increase of TNF production in 20% blood. […] If there is too much blood, there will be heavy concentrations of TNF production, exceeding the detection levels of the assay. Using this optimization data, we created a fixed method to measure the inhibition of TNF production or release with various drugs and drug combinations.
Blood was drawn from thirteen independent donors under an IRB approved protocol. […] The blood samples were spun and plasma evaluated for TNF production using TNF ELISA from BD Biosciences. […]. […] It could also provide a possible treatment for rheumatoid arthritis. […]

Series [2] concerns collagen induced arthritis. As to conditions: cited from earlier work.
In series [3] the test system is arthritis. The settings on record: rat arthritis model; cited from earlier work.
The next series concerns knee and ankle joints. Briefly: Histology of knee and ankle joints after CIA. As to conditions: CIA mice.
A short description of series [4]: Body weight in mouse CIA model (gross measure of drug toxicity). As to conditions: CIA mice, days 18-35.
The conditions of series [5]: CIA mice, same experimental protocol; cited from earlier work.

Entries after “also recorded” stand apart in the source; their conditions may differ. Counter-ions that a name gives are not always drawn. Bounds are passed on as bounds.

For the compound `COc1ccc(OC)c(C(O)C(C)NC(C)(C)C)c1` (racemic) [Butoxamine, DL-erythro-α-(2,5-dimethoxyphenyl)-β-t-butyl aminopropanol hydrochloride], the “inhibition of arthritis in animals (in words)” value with arthritis [1] (previous reports) was “potent inhibitor of arthritis in animals”. In the series on TNFα (LPS 10 μg/ml), the “effect on TNF production or release (in words)” value (shortened to “effect”) was “very little inhibition if at all” and the “inhibition of TNF production at the upper range of the dose curve” value was ≤ 20%.

As for `CC(C)NCC(O)COc1ccc(CC(N)=O)cc1` (stereo not shown) [Atenolol, atenolol], the “effect” value in the series on TNFα (LPS 10 μg/ml) is “significant elevation in the TNF response; also recorded: activators of TNF release”.

Broadly, the IC50 is the concentration that gives 50% inhibition. As to `COC(=O)[C@@H]1[C@H]2C[C@H]3c4[nH]c5ccccc5c4CCN3C[C@@H]2CC[C@@H]1O` [Yohimbine, yohimbine], the half-maximal inhibitory concentration (IC50) with TNFα (Homo sapiens, LPS 10 μg/ml, 25% blood diluted in plasmalyte, 37° C. 2 h) lay within 70 to 100 µg/mL. The “inhibition of TNF production at the upper range of the dose curve” value with TNFα (LPS 10 μg/ml) is 80%.

For the compound `CC(C)(C)NCC(O)c1cc(O)cc(O)c1` (stereo not shown) [Terbutaline, terbutaline], the “inhibition of inflammation in an arthritis model” value with arthritis [1] was 50%. Moreover, in series [2] (mice), the “benefit in collagen induced arthritis” value is 50%. Moreover, the “reduction of disease severity” value in the series with arthritis [3] is listed as 50%. Besides, in the series with TNFα (LPS 10 μg/ml), the “effect” value is “minimal effect”.

With `Cc1ccc(N(CC2=NCCN2)c2cccc(O)c2)cc1` [Phentolamine, phentolamine], in the series with TNFα (LPS 10 μg/ml), the “effect” value was “does not have the same level of inhibition as prazosin and yohimbine alone”.

Take `COc1cc2nc(N3CCN(C(=O)c4ccco4)CC3)nc(N)c2cc1OC` [Prazosin, prazosin]: in the series on knee and ankle joints, the “joint histology (Toluidine blue)” value is “prevents inflammation, bone and cartilage destruction, pannus formation and bone erosion”. Besides, the “drug concentration at which TNF activity is inhibited” value in the series on TNFα (LPS 10 μg/ml, 25% blood diluted in plasmalyte) stood at 20 µg/mL. In addition, in the series with TNFα (LPS 10 μg/ml), the “effect” value is “lowest IC50” and the “inhibition of TNF production at the upper range of the dose curve” value is listed as ~100%. Moreover, in the series on TNFα (blood of thirteen independent donors, 37 degrees, 2 hours), the “inhibition of TNF at the upper range of the dose curve, thirteen donors” value is on record as ~100%. For the same compound, the body weight change result in series [4] is given as “weight remained constant”. Besides, in series [4] (listed as NM2014), the body weight change entry was “essentially unchanged”.

`COCCc1ccc(OCC(O)CNC(C)C)cc1` (stereo not shown) [Metoprolol, metoprolol]: the “effect” value in the series with TNFα (LPS 10 μg/ml) is recorded as “significant elevation in the TNF response; also recorded: activators of TNF release”.

As for `CC(C)(C)NCC(O)c1ccc(O)c(CO)c1` (stereo not shown) [Salbutamol, salbutamol], the “inhibition of inflammation in an arthritis model” value in the series with arthritis [1] is given as 50%. Further, the “severity of collagen-induced arthritis (in words)” value in series [2] (mouse, in vivo) is given as “reduces the severity of collagen-induced arthritis”.

In the case of Enbrel, the “body weight change, historical Enbrel data” value in series [5] is “essentially unchanged”.

The values are drawn from patent US20110195974A1, “METHODS OF TREATING INFLAMMATORY CONDITIONS WITH ADRENERGIC ANTAGONISTS” (priority 2007, published 2011).
